Source: patent US20030118985A1, “Mouse monoclonal antibody (5-21-3) to human immunodeficiency virus gp41 protein” (priority 1997, published 2003)

What was measured:
[1] = test system: Rabbit (R) anti-P58-130 serum; test: Immunoprecipitation of [125I] synthetic peptides by rabbit anti-P58-130 serum; type: binding; conditions: for SPECIFIC PRECIPITATION (CPM) by RαP58-130 / x-fold increase of specific over non-specific precipitation, RαP58-130: rabbit anti-P58-130 serum 20 ul/0.2 ml, second antibody precipitation; for x-fold increase of specific over non-specific precipitation, RαP58-130: vs normal rabbit serum
Protocol: (§1) Synthetic peptides were radiolabeled with ^125I (Amersham) by the chloramine T method (N. M. Hunter, “Radioimmunoassay” in D. M. Weir, Ed., Handbook of Experimental Immunology, [Blackwell Scientific Publications, 1973]). Generally, 2-6 ul of 100 mCi/ml ^125I were added to 10-50 ug of peptide in PBS, pH 7.4. Approximately 10 ug of freshly prepared (1 mg/ml in PBS) chloramine T were added to the mixture maintained at 4° C. After 5 min., [^125I]peptide was separated from free ^125I by passage of the reaction mixture through a 3 ml (bed volume) column of Biogel P-6 or P-2, as required. Fractions (200 ul each) containing [^125I]peptide were pooled and diluted into PBS containing 20% fetal calf serum. Rough estimations of ^125I cpm bound to peptide were made by acid precipitation. An aliquot of labeled peptide was diluted into 1 ml of ice cold 50% trichloroacetic acid (TCA) overlaying a 0.45 um filter (made of mixed cellulose esters) set on a scintered glass filter connected to a vacuum apparatus. Precipitated protein was fixed onto the filter by application of vacuum, and filters were washed with ice-cold 50% TCA. Background cpm adhering non-specifically to the filter were estimated by repeating the procedure using a non-precipitating buffer. Amounts of peptide, ^125I, chloramine T, and composition of column eluting buffer were subject to change depending on conditions required to maintain solubility of each peptide.
(§2) Synthetic peptides radiolabeled with ^125I were diluted into PBS (pH 7.4) containing 0.1% Triton X-100 (or other detergents where indicated) and 1.0% BSA, to yield approximately 2.5-5×10^5 acid-precipitable cpm per 0.1 ml. Purified monoclonal IgG 5-21-3 and 10-15-63 were employed in the assay. Monoclonal antibodies were diluted into PBS containing 0.1% Triton X-100 (or other detergents where indicated), 1.0% BSA, and 2% normal mouse serum as a carrier immunoglobulin. Immune rabbit serum (anti-P58-130) was diluted appropriately into the same buffer except that normal rabbit serum (2%) was substituted for normal mouse serum as the carrier immunoglobulin. A reaction mixture comprising 0.1 ml [^125I] peptide (5×10^5 cpm/0.1 ml) and 0.1 ml diluted antibody was incubated 1 hr at 40° C., followed by addition of 0.1 ml of a precipitating antibody, either goat anti-mouse IgG, or goat anti-rabbit IgG, corresponding to the primary antibody. The reaction mixture was incubated 1 hr at 40° C. and then overnight at 4° C. […] Precipitation assays employing Protein A-Sepharose as the precipitating reagent were performed in a similar manner, except that normal sera were omitted from the reaction mixtures.

[2] = test system: monoclonal antibody 10-15-63; test: Immunoprecipitation of [125I] synthetic peptides by 10-15-63; type: binding, mouse; conditions: for SPECIFIC PRECIPITATION (CPM) by 10-15-63 / x-fold increase of specific over non-specific precipitation, 10-15-63: 10-15-63 10 μg/0.2 ml, second antibody precipitation; for SPECIFIC PRECIPITATION (CPM) by 10-15-63: PBS, 0.1% Triton X-100, 1.0% BSA, carrier serum; for x-fold increase of specific over non-specific precipitation, 10-15-63: vs normal mouse IgG
Protocol: as §1, §2

[3] = test system: monoclonal antibody 5-21-3; test: Immunoprecipitation of [125I] synthetic peptides by 5-21-3; type: binding, mouse; conditions: for SPECIFIC PRECIPITATION (CPM) by 5-21-3 / x-fold increase of specific over non-specific precipitation, 5-21-3: 5-21-3 10 μg/0.2 ml, second antibody precipitation; for SPECIFIC PRECIPITATION (CPM) by 5-21-3: PBS, 0.1% Triton X-100, 1.0% BSA, carrier serum; for x-fold increase of specific over non-specific precipitation, 5-21-3: vs normal mouse IgG
Protocol: as §1, §2

[4] = test system: binding of antibody 5-21-3 to rp41; test: Binding inhibition assay: peptides inhibit binding of 5-21-3 to rp41; set-up: species or system HIV I; conditions: for Molar Ratio at 50% inhibition of 5-21-3 binding: mean of two experiments, 0.4 pmol 5-21-3 IgG per well
Protocol: Additional evidence for the conformationl nature of the 5-21-3 epitope was obtained using binding inhibition studies, in which synthetic peptides were ranked for their ability to inhibit binding of 5-21-3 to rp41. First, the Fab dimer of an anti-gp41 monoclonal antibody was prepared by conventional methods (Goding et al., supra). Then 100 ul of a 1 mg/ml solution of the Fab dimer in bicarbonate buffer (pH 9.6) was coated onto Immulon II microtiter plates for 1 hr at 37° C. After washing with PBS containing 0.05% Tween 20, the plates were overcoated with 200 ul of 1.0% ovalbumin in bicarbonate buffer (pH 9.6) for 1 hr at 30° C. After washing, 100 ul of rp41 enriched E. coli lysate (as described in Example 3), diluted appropriately in PBS containing 0.05% Tween 20, were allowed to bind to the Fab dimer for 2 hr at 30° C. The plates were washed and stored at 4° C.
Intact monoclonal antibody 5-21-3 IgG (purified from tissue culture fluid supporting growth of the cloned cell line 5-21-3) was titrated against the bound rp41 on the plate, and an antibody concentration was selected which yielded an A492 value of 2.0-3.0. Usually, 0.4 pmol (0.06 ug) of 5-21-3 IgG per microtiter well was employed in these assays. Stock solutions of 5-21-3 IgG were prepared in PBS containing 0.1% Triton X-100 and 0.1% SDS. Dilutions of synthetic peptides were made in the same buffer (SDS was included in these experiments to keep peptides soluble at high concentrations).
The binding inhibition assay was performed by combining 0.15 ml of 1.2 ug/ml 5-21-3 antibody stock solution with 0.15 ml of peptide at a selected peptide concentration, and incubating the reaction mixture 1 hr at room temp. Then 0.1 ml aliquots of each reaction mixture were added to each of two wells in the microtiter tray. After a 1 hr incubation at room temp., the plates were washed, and HRPO conjugated Goat anti-mouse IgG Fc was added for 1 hr at room temp. The plates were washed, and addition of OPD for color development identified the relative amounts of 5-21-3 bound to rp41 in the microtiter wells. The reaction was stopped by addition of 100 ul of 1N H2SO4, and the plates were read on a Dynatech II microtiter plate reader.

[5] = test system: monoclonal antibody 5-21-3; test: Immuno-dot blot of synthetic peptides with 5-21-3; type: binding, mouse; conditions: 25 ug/ml 5-21-3; mild washing procedures
Source text: The western Blot procedure described in Example 1 was employed for development of immuno-dot blots using synthetic peptides, except that synthetic peptides were fixed to nitrocellulose by direct application using Drummond lambda pipettes, and air dried prior to blocking with 20% fetal calf serum in PBS (pH 7.4).

Substance	SPECIFIC PRECIPITATION (CPM) by RαP58-130 [1]	x-fold increase of specific over non-specific precipitation, RαP58-130 [1]	SPECIFIC PRECIPITATION (CPM) ([2]; 10-15-63 1.0 μg/ml final)	x-fold increase of specific over non-specific precipitation ([2]; 10-15-63 1.0 μg/ml final)	SPECIFIC PRECIPITATION (CPM) by 10-15-63 [2]	x-fold increase of specific over non-specific precipitation, 10-15-63 [2]	SPECIFIC PRECIPITATION (CPM) ([2]; 10-15-63 10.0 μg/ml final)	x-fold increase of specific over non-specific precipitation ([2]; 10-15-63 10.0 μg/ml final)	SPECIFIC PRECIPITATION (CPM) ([2]; 10-15-63 100.0 μg/ml final)	x-fold increase of specific over non-specific precipitation ([2]; 10-15-63 100.0 μg/ml final)	binding of [125I]peptide by 5-21-3 (immunoprecipitation), in words [3]	SPECIFIC PRECIPITATION (CPM) ([3]; 5-21-3 1.0 μg/ml final)	x-fold increase of specific over non-specific precipitation ([3]; 5-21-3 1.0 μg/ml final)	SPECIFIC PRECIPITATION (CPM) by 5-21-3 [3]	x-fold increase of specific over non-specific precipitation, 5-21-3 [3]	SPECIFIC PRECIPITATION (CPM) ([3]; 5-21-3 10.0 μg/ml final)	x-fold increase of specific over non-specific precipitation ([3]; 5-21-3 10.0 μg/ml final)	SPECIFIC PRECIPITATION (CPM) ([3]; 5-21-3 100.0 μg/ml final)	inhibition of 5-21-3 binding to rp41, in words [4]	Molar Ratio at 50% inhibition of 5-21-3 binding [4]	other results
IHSLIEESQNQQEKNEQELLELDK [P131-154]	0 CPM	(<1) x-fold	0 CPM	(0) x-fold	0 CPM	(<1) x-fold	0 CPM	(0) x-fold	112 CPM	(1.1) x-fold	unable to bind	0 CPM	(0) x-fold	970 CPM	(1.1) x-fold	0 CPM	(0) x-fold	0 CPM	could not be demonstrated	>50,000 pmoles peptide/pmoles 5-21-3	x-fold increase of specific over non-specific precipitation ([3]; 5-21-3 100.0 μg/ml final): (0) x-fold; 5-21-3 concentration required to demonstrate binding of the peptide ([3]; immunoprecipitation, Table 5): could not be demonstrated
IHSLIEESQNQQEKNEQELLELDKWANLWNWLNITNWLWYIKLFI [P131-175]	0 CPM	(<1) x-fold	–	–	188 CPM	(1.4) x-fold	–	–	–	–	Little or no binding activity	–	–	317 CPM	(1.6) x-fold	–	–	–	definite inhibitor	18,815 pmoles peptide/pmoles 5-21-3	–
NH2-Asp-Arg-Glu-Ile-Asn-Asn-Tyr-Thr-Ser-Leu-Ile-His-Ser-Leu-Ile-Glu-Glu -Ser-Gln-Asn-Gln-Gln-Glu-Lys-Asn-Glu-Gln-Glu-Leu-Leu-Glu-Leu-Asp-Lys-COOH (H-DREINNYTSLIHSLIEESQNQQEKNEQELLELDK-OH) [P121-154]	310,419 CPM	(24) x-fold	0 CPM	(0) x-fold	371 CPM	(1.3) x-fold	0 CPM	(0) x-fold	0 CPM	(0) x-fold	recognized by 5-21-3	0 CPM	(0) x-fold	40,717 CPM	(31) x-fold	1,113 CPM	(2.3) x-fold	18,984 CPM	potent inhibitor	1,494 pmoles peptide/pmoles 5-21-3	precipitation of [125I]peptide by rabbit anti-P58-130, in words [1]: strong precipitator; x-fold increase of specific over non-specific precipitation ([3]; 5-21-3 100.0 μg/ml final): (13) x-fold; fold less active than P67-154 in binding inhibition [4]: 20 fold; fold restoration of binding inhibition activity relative to P131-154 [4]: 20-65 fold; immuno-dot blot reactivity with 5-21-3 [5]: faint, diffuse reaction
YNYTSLIHSLIEESQNQQEKNEQELLELDKWANLWNWL [P126-162]	0 CPM	(<1) x-fold	0 CPM	(0) x-fold	0 CPM	(<1) x-fold	0 CPM	(0) x-fold	0 CPM	(0) x-fold	recognized by 5-21-3	0 CPM	(0) x-fold	11,540 CPM	(3.4) x-fold	295 CPM	(1.1) x-fold	4,924 CPM	roughly equivalent to that of P121-154	1,585 pmoles peptide/pmoles 5-21-3	x-fold increase of specific over non-specific precipitation ([3]; 5-21-3 100.0 μg/ml final): (1.6) x-fold; immuno-dot blot reactivity with 5-21-3 [5]: additional 5-21-3 reactivity was observed
